Where two headings read alike, the source gives them in different places.
How the values were obtained:
in vivo = conditions: NIH-III, mouse, in vivo, ip, 186 mg/kg
[1] = Plasma, liver and brain PK after i.p. dosing with M14; format: in vivo; conditions: i.p. M14 135 mg/kg; for Cmax / half-life: NIH-III nude, mouse, in vivo, ip, 135 mg/kg; for Cmax: read-out: Cmax; for half-life: read-out: Terminal T1/2
[2] = Stability in mouse plasma (QC samples); format: physicochemical
Source text: (§1) using octa-deuterated internal standards of SN30000, M13 and M14 synthesised as previously reported (Wang et al., 2012). Intra- and inter-day precision (expressed as relative standard deviation (RSD) and accuracy (expressed as percentage of the nominal value) were deter mined by analy sis of replicates (n=6) of low and high quality control (QC) samples on three different days. The lower limit of quantitation (LLOQ) was defined as the lowest concentration providing RSD and accuracy < 20%. Recovery from plasma and liver ho mogenates was tested at the three QC levels. The recoveries were evaluated by comparing extracted samples with blank extracted solutions spiked with analytes of the same amount.
(§2) Matrix effects, defined as the change in response due to the presence of other substances in the samples, were evaluated by comparing the analytes diluted into the blank plasma or liver extracted solution with that of the same stock solutions diluted in water. Three different concentration levels (low, medium and high QC) were evaluated by analysing three samples at each level. Accuracy , precision, recovery and matrix effects were all acceptable over the concentration ranges evaluated for plas ma (Supplementary Table 1) and for liver homogenates (Supplementary Table 2).
(§3) Stability of the analytes in mouse plasma (Supplementary Table 3) or liver homogenate (Supplementary Table 4) was confirmed during holding of QC samples on ice for up to 2 h under nor mal laboratory lighting, although there was a trend towards loss of SN30000 in plasma samples held in clear microcentrifuge tubes which may reflect the known photosensitivity of the compound (Gu et al., 2014). This loss was reduced by use of red microcentrifuge tubes, and eliminated by black tubes. Stability in both matrices was also confir med for one month storage at -80°C and for three freeze-thaw cycles, while MeOH-deproteinised samples w ere stable for 12 h at 4°C in the autosampler (Supplementary Tables

[3] = i.p. SN30000 186 mg/kg
[4] = Stability in mouse liver homogenates (QC samples); format: physicochemical
Source text: as §1, §2, §3

[5] = plasma deproteinised in 3 vol MeOH, 12 h autosampler at 4°C, nominal SN30000 0.5, M14 0.25, M13 0.1 µM
[6] = plasma deproteinised in 3 vol MeOH, 12 h autosampler at 4°C, nominal SN30000 5, M14 2.5, M13 1 µM
[7] = plasma deproteinised in 3 vol MeOH, 12 h autosampler at 4°C, nominal SN30000 50, M14 25, M13 10 µM
[8] = plasma, 1 month at -80°C, nominal SN30000 0.5, M14 0.25, M13 0.1 µM
[9] = plasma, 1 month at -80°C, nominal SN30000 5, M14 2.5, M13 1 µM
[10] = plasma, 1 month at -80°C, nominal SN30000 50, M14 25, M13 10 µM
[11] = plasma, 1 h on ice, black vial, nominal SN30000 0.5, M14 0.25, M13 0.1 µM
[12] = plasma, 1 h on ice, black vial, nominal SN30000 5, M14 2.5, M13 1 µM
[13] = plasma, 1 h on ice, black vial, nominal SN30000 50, M14 25, M13 10 µM
[14] = plasma, 1 h on ice, clear vial, nominal SN30000 0.5, M14 0.25, M13 0.1 µM
[15] = plasma, 1 h on ice, clear vial, nominal SN30000 5, M14 2.5, M13 1 µM
[16] = plasma, 1 h on ice, clear vial, nominal SN30000 50, M14 25, M13 10 µM
[17] = plasma, 1 h on ice, red vial, nominal SN30000 0.5, M14 0.25, M13 0.1 µM
[18] = plasma, 1 h on ice, red vial, nominal SN30000 5, M14 2.5, M13 1 µM
[19] = plasma, 1 h on ice, red vial, nominal SN30000 50, M14 25, M13 10 µM
[20] = plasma, 2 h on ice, black vial, nominal SN30000 0.5, M14 0.25, M13 0.1 µM
[21] = plasma, 2 h on ice, black vial, nominal SN30000 5, M14 2.5, M13 1 µM
[22] = plasma, 2 h on ice, black vial, nominal SN30000 50, M14 25, M13 10 µM
[23] = plasma, 2 h on ice, clear vial, nominal SN30000 0.5, M14 0.25, M13 0.1 µM
[24] = plasma, 2 h on ice, clear vial, nominal SN30000 5, M14 2.5, M13 1 µM
[25] = plasma, 2 h on ice, clear vial, nominal SN30000 50, M14 25, M13 10 µM
[26] = plasma, 2 h on ice, red vial, nominal SN30000 0.5, M14 0.25, M13 0.1 µM
[27] = plasma, 2 h on ice, red vial, nominal SN30000 5, M14 2.5, M13 1 µM
[28] = plasma, 2 h on ice, red vial, nominal SN30000 50, M14 25, M13 10 µM
[29] = plasma, three freeze-thaw cycles, nominal SN30000 0.5, M14 0.25, M13 0.1 µM
[30] = plasma, three freeze-thaw cycles, nominal SN30000 5, M14 2.5, M13 1 µM
[31] = plasma, three freeze-thaw cycles, nominal SN30000 50, M14 25, M13 10 µM
[32] = HT29 tumour, tumour-bearing mice
[33] = liver, HT29 tumour-bearing mice
[34] = liver homogenate deproteinised in 3 vol MeOH, 12 h autosampler at 4°C, nominal SN30000 0.5, M14 0.25, M13 0.1 µM
[35] = liver homogenate deproteinised in 3 vol MeOH, 12 h autosampler at 4°C, nominal SN30000 5, M14 2.5, M13 1 µM
[36] = liver homogenate deproteinised in 3 vol MeOH, 12 h autosampler at 4°C, nominal SN30000 50, M14 25, M13 10 µM
[37] = liver homogenate, 1 month at -80°C, nominal SN30000 0.5, M14 0.25, M13 0.1 µM
[38] = liver homogenate, 1 month at -80°C, nominal SN30000 5, M14 2.5, M13 1 µM
[39] = liver homogenate, 1 month at -80°C, nominal SN30000 50, M14 25, M13 10 µM
[40] = liver homogenate, 1h on ice, clear tubes, nominal SN30000 0.5, M14 0.25, M13 0.1 µM
[41] = liver homogenate, 1h on ice, clear tubes, nominal SN30000 5, M14 2.5, M13 1 µM
[42] = liver homogenate, 1h on ice, clear tubes, nominal SN30000 50, M14 25, M13 10 µM
[43] = liver homogenate, 2h on ice, nominal SN30000 0.5, M14 0.25, M13 0.1 µM
[44] = liver homogenate, 2h on ice, nominal SN30000 5, M14 2.5, M13 1 µM
[45] = liver homogenate, 2h on ice, nominal SN30000 50, M14 25, M13 10 µM
[46] = liver homogenate, three freeze-thaw cycles, nominal SN30000 0.5, M14 0.25, M13 0.1 µM
[47] = liver homogenate, three freeze-thaw cycles, nominal SN30000 5, M14 2.5, M13 1 µM
[48] = liver homogenate, three freeze-thaw cycles, nominal SN30000 50, M14 25, M13 10 µM

## [O-][n+]1nc(CCCN2CCOCC2)nc2cc3c(cc21)CCC3 [M14]
In vivo
  Tmax: ≤ 5 min
In vivo; Cmax, i.p. SN30000 186 mg/kg, plasma, non-tumour-bearing mice
  Cmax: 36.1 ± 5.5 µM
In vivo; Elimination half-life, i.p. SN30000 186 mg/kg, all tissues except tumors
  half-life: ~30 min
In vivo; Terminal T1/2, i.p. SN30000 186 mg/kg, HT29 tumour, tumour-bearing mice
  half-life: 94.8 min
In vivo; Terminal T1/2, i.p. SN30000 186 mg/kg, brain, non-tumour-bearing mice
  half-life: 32.1 min
In vivo; Terminal T1/2, i.p. SN30000 186 mg/kg, liver, HT29 tumour-bearing mice
  half-life: 42.7 min
In vivo; Terminal T1/2, i.p. SN30000 186 mg/kg, liver, non-tumour-bearing mice
  half-life: 40.5 min
In vivo; Terminal T1/2, i.p. SN30000 186 mg/kg, plasma, HT29 tumour-bearing mice
  half-life: 40.6 min
In vivo; Terminal T1/2, i.p. SN30000 186 mg/kg, plasma, non-tumour-bearing mice
  half-life: 37.8 min
[1]; brain
  Cmax: 260 ± 29 µM
  half-life: 20.1 min
  AUC: 108.3 µmol·h/kg
[1]; liver
  Cmax: 319 ± 46.1 µM
  half-life: 25.1 min
  AUC: 131.1 µmol·h/kg
[1]; plasma
  Cmax: 95.6 ± 9.8 µM
  half-life: 30.8 min
  AUC: 36.6 µmol·h/kg
[2]; [5]
  Bias: -3.45%
  Measured conc: 0.24 µM
[2]; [6]
  Bias: -1.00%
  Measured conc: 2.48 µM
[2]; [7]
  Bias: 5.16%
  Measured conc: 26.29 µM
[2]; [8]
  Bias: 1.83%
  Measured conc: 0.23 µM
[2]; [9]
  Bias: 1.63%
  Measured conc: 2.42 µM
[2]; [10]
  Bias: 1.59%
  Measured conc: 26.65 µM
[2]; [11]
  Bias: -6.07%
  Measured conc: 0.23 µM
[2]; [12]
  Bias: -9.84%
  Measured conc: 2.25 µM
[2]; [13]
  Bias: 3.20%
  Measured conc: 25.80 µM
[2]; [14]
  Bias: -6.07%
  Measured conc: 0.23 µM
[2]; [15]
  Bias: -2.06%
  Measured conc: 2.45 µM
[2]; [16]
  Bias: -2.50%
  Measured conc: 24.37 µM
[2]; [17]
  Bias: -3.25%
  Measured conc: 0.24 µM
[2]; [18]
  Bias: -4.29%
  Measured conc: 2.39 µM
[2]; [19]
  Bias: 0.26%
  Measured conc: 25.07 µM
[2]; [20]
  Bias: -2.23%
  Measured conc: 0.24 µM
[2]; [21]
  Bias: -2.62%
  Measured conc: 2.43 µM
[2]; [22]
  Bias: -2.33%
  Measured conc: 24.42 µM
[2]; [23]
  Bias: -5.90%
  Measured conc: 0.24 µM
[2]; [24]
  Bias: 0.51%
  Measured conc: 2.51 µM
[2]; [25]
  Bias: -2.43%
  Measured conc: 24.39 µM
[2]; [26]
  Bias: -3.27%
  Measured conc: 0.24 µM
[2]; [27]
  Bias: -0.72%
  Measured conc: 2.48 µM
[2]; [28]
  Bias: 0.70%
  Measured conc: 25.17 µM
[2]; [29]
  Bias: -4.07%
  Measured conc: 0.24 µM
[2]; [30]
  Bias: -3.19%
  Measured conc: 2.42 µM
[2]; [31]
  Bias: 3.92%
  Measured conc: 25.98 µM
[3]
  Concentrations in brain compared with plasma: higher in brain than plasma
[3]; [32]
  AUC (extrapolated to infinity): 136 µmol·h/kg
  Cmax: 46.0 ± 3.9 µmol/kg
[3]; brain, non-tumour-bearing mice
  AUC (extrapolated to infinity): 126 µmol·h/kg
  Cmax: 162 ± 0 µmol/kg
[3]; [33]
  AUC (extrapolated to infinity): 305 µmol·h/kg
  Cmax: 371 ± 26 µmol/kg
[3]; liver, non-tumour-bearing mice
  AUC (extrapolated to infinity): 350 µmol·h/kg
  Cmax: 469 ± 27 µmol/kg
[3]; plasma, HT29 tumour-bearing mice
  AUC (extrapolated to infinity): 27. 6 µmol. hr/kg
[3]; plasma, non-tumour-bearing mice
  AUC (extrapolated to infinity): 26.4 µmol·h/kg
[4]; [34]
  Bias: 3.86%
  Measured conc: 0.26 µM
[4]; [35]
  Bias: 5.73%
  Measured conc: 2.64 µM
[4]; [36]
  Bias: 5.22%
  Measured conc: 26.30 µM
[4]; [37]
  Bias: 1.76%
  Measured conc: 0.25 µM
[4]; [38]
  Bias: 4.04%
  Measured conc: 2.35 µM
[4]; [39]
  Bias: 5.13%
  Measured conc: 23.54 µM
[4]; [40]
  Bias: 5.21%
  Measured conc: 0.26 µM
[4]; [41]
  Bias: 1.78%
  Measured conc: 2.54 µM
[4]; [42]
  Bias: 3.05%
  Measured conc: 25.76 µM
[4]; [43]
  Bias: 8.20%
  Measured conc: 0.27 µM
[4]; [44]
  Bias: 9.32%
  Measured conc: 2.73 µM
[4]; [45]
  Bias: 0.75%
  Measured conc: 25.19 µM
[4]; [46]
  Bias: -4.84%
  Measured conc: 0.24 µM
[4]; [47]
  Bias: -5.62%
  Measured conc: 2.36 µM
[4]; [48]
  Bias: 5.39%
  Measured conc: 26.35 µM
